Our source for the IC50 values is ChEMBL document CHEMBL1149346, “Activity of nitrogen-containing and non-nitrogen-containing bisphosphonates on tumor cell lines” (J Med Chem, 2006).

What all share (assay type): functional, cell-based
One experiment concerns MCF7. Kind of experiment: Antiproliferative activity against human MCF7 cell line by MTT assay. On the technique in general: Tetrazolium assays rely on reduction of a dye to a coloured formazan, in cell work by metabolically active cells.
The subject of the next experiment is NCI-H460. Description: Antiproliferative activity against human NCI-H460 cell line by MTT assay.
Another experiment deals with SF-268. Description: cells. The conditions noted are these: Homo sapiens.

Structures are written as SMILES.

Description for SF-268: Antiproliferative activity against human SF-268 cell line by MTT assay

As a reminder, the IC50 is the concentration at which inhibition is half-maximal. For `O=P([O-])(O)C(O)(C[n+]1ccc(Cc2ccccc2)cc1)P(=O)(O)O` (centres undefined), the IC50 in the experiment with MCF7 is 191 µM; with NCI-H460, 211 µM; in the experiment on SF-268 it was 111 µM.
For the molecule `O=P(O)(O)C(O)(c1cccc(-c2cccc(-c3ccccc3)c2)c1)P(=O)(O)O`, the IC50 is 310 µM in the experiment on MCF7, 285 µM with NCI-H460 and 303 µM in the experiment on SF-268.
Consider `O=P([O-])(O)C(C[n+]1cccc(-c2ccc(-c3ccccc3)cc2)c1)P(=O)(O)O` (centres undefined), for which the results for the IC50 in the experiment on MCF7, with NCI-H460 and with SF-268 were 25.1 µM, 21.5 µM and 23.2 µM, respectively.
For `O=P(O)(O)C(CNc1ccncc1)P(=O)(O)O`, the IC50 is 22.7 µM in the experiment with MCF7, 12.6 µM in the experiment on NCI-H460 and 14.4 µM in the experiment on SF-268.
The matching figures for `O=P([O-])(O)C(C[n+]1ccc(Cc2ccccc2)cc1)P(=O)(O)O` (centres undefined): 125 µM, 141 µM and 133 µM.
The corresponding values for `O=P([O-])(O)C(C[n+]1ccc(-c2ccccc2-c2ccccc2)cc1)P(=O)(O)O` (centres undefined) are 280 µM, 284 µM and 243 µM.
The corresponding values for `CC(C)OC(=O)OCOP(=O)(OCOC(=O)OC(C)C)C(Cc1ccc(F)c(F)c1)P(=O)(OCOC(=O)OC(C)C)OCOC(=O)OC(C)C` are 15.2 µM, 20.1 µM and 28.3 µM.
Turning to `O=P([O-])(O)C(O)(C[n+]1cccc(Br)c1)P(=O)(O)O` (centres undefined), the concentration for half-maximal inhibition (IC50) was 33.5 µM in the experiment with MCF7, 54.5 µM in the experiment with NCI-H460 and 55.7 µM in the experiment on SF-268.
The corresponding values for `O=P([O-])(O)C(C[n+]1cccc(Br)c1)P(=O)(O)O` (centres undefined) are 143 µM, 92.9 µM and 109 µM.
The matching figures for `O=P([O-])(O)C(O)(C[n+]1cccc(-c2ccc(O)cc2)c1)P(=O)(O)O` (centres undefined): 37.2 µM, 74.4 µM and 30.7 µM.
Regarding `O=P([O-])(O)C(O)(C[n+]1cccc(-c2ccccc2)c1)P(=O)(O)O` (centres undefined), the IC50 with MCF7 is 44.2 µM; in the experiment on NCI-H460, 52.2 µM; in the experiment with SF-268 it was 27.2 µM.
The matching figures for `CC(C)(C)C(=O)OCOP(=O)(OCOC(=O)C(C)(C)C)C(CNc1ccccn1)P(=O)(OCOC(=O)C(C)(C)C)OCOC(=O)C(C)(C)C`: 6.44 µM, 5.95 µM and 7.89 µM.
Turning to `Cc1ccc2ccc[n+](CC(O)(P(=O)([O-])O)P(=O)(O)O)c2c1` (centres undefined), the IC50 was determined as 289 µM in the experiment on MCF7, 270 µM in the experiment with NCI-H460 and 257 µM in the experiment with SF-268.
The corresponding values for `CC(C)(C)C(=O)OCOP(=O)(OCOC(=O)C(C)(C)C)C(Cc1cccc(-c2cccc(-c3ccccc3)c2)c1)P(=O)(OCOC(=O)C(C)(C)C)OCOC(=O)C(C)(C)C` are 2.62 µM, 1.64 µM and 2.38 µM.
Regarding `COc1cc[n+](CC(O)(P(=O)([O-])O)P(=O)(O)O)cc1` (centres undefined), the IC50 in the experiment with MCF7 is 409 µM; in the experiment on NCI-H460, 644 µM; in the experiment with SF-268, 436 µM.
The corresponding values for `CCCCc1ccc[n+](CC(P(=O)([O-])O)P(=O)(O)O)c1` (centres undefined) are 26.5 µM, 33 µM and 24.1 µM.
The corresponding values for `O=P([O-])(O)C(C[n+]1ccccc1)P(=O)(O)O` (centres undefined) are 72.3 µM, 109 µM and 65.1 µM.
On to `Cc1ccc[n+](CC(O)(P(=O)([O-])O)P(=O)(O)O)c1` (centres undefined), for which the IC50 in the experiment with MCF7 amounted to 98.1 µM; in the experiment on NCI-H460, 66.8 µM; in the experiment on SF-268, 52.6 µM.
With `O=P(O)(O)C(Cc1ccc(Br)c(Br)c1)P(=O)(O)O`, the IC50 in the experiment on MCF7 was 533 µM; in the experiment on NCI-H460, 446 µM; with SF-268 it was 349 µM.
As to `O=P([O-])(O)C(C[n+]1cccc(S(=O)(=O)N2CCCC2)c1)P(=O)(O)O` (centres undefined), the IC50 in the experiment on MCF7, in the experiment on NCI-H460 and with SF-268 was over 10000 µM each time.
`O=P(O)(O)C(O)(CCc1cccc(-c2ccccc2-c2ccccc2)c1)P(=O)(O)O`: the values for the IC50 in the experiment with MCF7, in the experiment on NCI-H460 and in the experiment with SF-268 were 146 µM, 133 µM and 143 µM, respectively.
`O=P(O)(O)C(CNc1ccccn1)P(=O)(O)O`: the IC50 turned out to be 223 µM with MCF7, 63.7 µM in the experiment with NCI-H460 and 147 µM in the experiment with SF-268.
The corresponding values for `CN(CCCCc1ccccc1)CCC(O)(P(=O)(O)O)P(=O)(O)O` are 82.5 µM, 22.9 µM and 49.2 µM.
With `O=P([O-])(O)C(O)(C[n+]1cccc(Cl)c1)P(=O)(O)O` (centres undefined), the figures for the IC50 with MCF7, with NCI-H460 and in the experiment with SF-268 were 121 µM, 58.1 µM and 58.3 µM, respectively.
The matching figures for `O=P(O)(O)C(O)(CCc1cccc(-c2cccc(-c3ccccc3)c2)c1)P(=O)(O)O`: 43.9 µM, 46.9 µM and 44.7 µM.
With `O=P(O)(O)C(CNCc1cccc(-c2ccccc2)c1)P(=O)(O)O`, the IC50 was determined as 46 µM in the experiment with MCF7, 5.73 µM with NCI-H460 and 6.18 µM with SF-268.
For the molecule `CC(C)OC(=O)OCOP(=O)(OCOC(=O)OC(C)C)C(Cc1cccc(C#N)c1)P(=O)(OCOC(=O)OC(C)C)OCOC(=O)OC(C)C`, the figures for the half-maximal inhibitory concentration (IC50) in the experiment on MCF7, in the experiment with NCI-H460 and with SF-268 were 58.6 µM, 22.6 µM and 7.77 µM, respectively.
Regarding `O=P([O-])(O)C(C[n+]1cccc(C(F)(F)F)c1)P(=O)(O)O` (centres undefined), the half-maximal inhibitory concentration (IC50) in the experiment with MCF7 is 129 µM; in the experiment with NCI-H460, 142 µM; with SF-268, 132 µM.
For the molecule `O=P([O-])(O)C(C[n+]1cccc(-c2ccccc2)c1)P(=O)(O)O` (centres undefined), the IC50 in the experiment on MCF7 is 34.6 µM; with NCI-H460, 41.3 µM; with SF-268, 43.6 µM.
`CN(C)c1cc[n+](CC(O)(P(=O)([O-])O)P(=O)(O)O)cc1` (centres undefined): the IC50 in the experiment with MCF7, with NCI-H460 and in the experiment with SF-268 was over 10000 µM throughout.
On to `CC(C)(C)C(=O)OCOP(=O)(OCOC(=O)C(C)(C)C)C(Cc1ccc(Cl)c(Cl)c1)P(=O)(OCOC(=O)C(C)(C)C)OCOC(=O)C(C)(C)C`, for which the IC50 with MCF7 was found to be 0.34 µM; in the experiment with NCI-H460, 2.7 µM; in the experiment with SF-268, 1.43 µM.
Regarding `O=P([O-])(O)C(C[n+]1ccc2ccccc2c1)P(=O)(O)O` (centres undefined), the IC50 with MCF7, in the experiment on NCI-H460 and in the experiment with SF-268 was over 10000 µM in each case.
As to `O=P([O-])(O)C(O)(C[n+]1ccc(-c2ccncc2)cc1)P(=O)(O)O` (centres undefined), the IC50 in the experiment with MCF7, with NCI-H460 and with SF-268 was over 10000 µM throughout.
Take `O=P([O-])(O)C(O)(C[n+]1cccc(F)c1)P(=O)(O)O` (centres undefined): the IC50 with MCF7 was 58.1 µM; with NCI-H460, 65.8 µM; in the experiment on SF-268, 49.3 µM.
With `O=P([O-])(O)C(O)(C[n+]1cccc(Cc2ccccc2)c1)P(=O)(O)O` (centres undefined), the IC50 in the experiment on MCF7 is 69.2 µM; with NCI-H460 it was 18.5 µM; with SF-268, 67 µM.
As to `CCc1ccc[n+](CC(P(=O)([O-])O)P(=O)(O)O)c1` (centres undefined), the figures for the IC50 in the experiment on MCF7, in the experiment with NCI-H460 and in the experiment on SF-268 were 42.6 µM, 62 µM and 44.8 µM, respectively.
The matching figures for `O=P([O-])(O)C(C[n+]1ccc(C(F)(F)F)cc1)P(=O)(O)O` (centres undefined): over 10000 µM, over 10000 µM and over 10000 µM.
The matching figures for `O=P(O)(O)C(O)(Cn1ccnc1)P(=O)(O)O` [ZOLEDRONIC ACID]: 27.7 µM, 11.7 µM and 14.3 µM.
For `O=P([O-])(O)C(O)(C[n+]1cccc(-c2ccc(C(F)(F)F)cc2)c1)P(=O)(O)O` (centres undefined), the 50% inhibitory concentration (IC50) stood at 14.5 µM in the experiment with MCF7, 23.2 µM in the experiment on NCI-H460 and 10.4 µM in the experiment with SF-268.
As for `O=P([O-])(O)C(O)(C[n+]1ccccc1)P(=O)(O)O` (centres undefined), the 50% inhibitory concentration (IC50) in the experiment on MCF7 amounted to 79.4 µM; in the experiment with NCI-H460 it was 69.9 µM; in the experiment on SF-268 it was 46.8 µM.
Take `Cc1ccc2c(ccc[n+]2CC(O)(P(=O)([O-])O)P(=O)(O)O)c1` (centres undefined): the IC50 worked out at 260 µM in the experiment with MCF7, 279 µM in the experiment with NCI-H460 and 261 µM with SF-268.
As to `O=P(O)(O)C(Nc1ncccc1OCc1ccccc1)P(=O)(O)O`, the IC50 in the experiment on MCF7 was 339 µM; in the experiment on NCI-H460, 3210 µM; in the experiment with SF-268, 399 µM.
The matching figures for `O=P([O-])(O)C(O)(C[n+]1ccc(-c2ccccc2)cc1)P(=O)(O)O` (centres undefined): 304 µM, 312 µM and 290 µM.
Consider `O=P([O-])(O)C(C[n+]1cccc(I)c1)P(=O)(O)O` (centres undefined), for which the IC50 with MCF7 worked out at 123 µM; in the experiment with NCI-H460 it was 53.7 µM; in the experiment with SF-268, 89.3 µM.
For the molecule `O=P(O)(O)C(O)(CCc1cccc(-c2ccc(-c3ccccc3)cc2)c1)P(=O)(O)O`, the IC50 in the experiment with MCF7 is 196 µM; with NCI-H460, 132 µM; with SF-268, 175 µM.
The corresponding values for `Cc1ccc[n+](CC(P(=O)([O-])O)P(=O)(O)O)c1` (centres undefined) are 38.1 µM, 62 µM and 44.6 µM.
Turning to `O=P([O-])(O)C(C[n+]1ccc(-c2ccc(-c3ccccc3)cc2)cc1)P(=O)(O)O` (centres undefined), the IC50 with MCF7, in the experiment with NCI-H460 and in the experiment with SF-268 was over 10000 µM in each case.
As to `O=P(O)(O)C(O)(Cc1cccc(-c2cccc(-c3ccccc3)c2)c1)P(=O)(O)O`, the IC50 amounted to 152 µM with MCF7, 140 µM in the experiment on NCI-H460 and 130 µM with SF-268.
The matching figures for `O=P([O-])(O)C(O)(C[n+]1cccc(-c2ccc(F)cc2)c1)P(=O)(O)O` (centres undefined): 17.3 µM, 5.6 µM and 6.5 µM.
The corresponding values for `O=P([O-])(O)C(C[n+]1ccc(-c2cccc(-c3ccccc3)c2)cc1)P(=O)(O)O` (centres undefined) are over 10000 µM, over 10000 µM and over 10000 µM.
As for `O=P(O)(O)C(O)(Cc1cccc(-c2ccccc2-c2ccccc2)c1)P(=O)(O)O`, the IC50 came to 92.7 µM in the experiment with MCF7, 86.1 µM with NCI-H460 and 58 µM in the experiment with SF-268.
The corresponding values for `O=P(O)(O)C(O)(Cc1ccc(-c2ccccc2-c2ccccc2)cc1)P(=O)(O)O` are 1060 µM, 329 µM and 475 µM.
The matching figures for `O=P([O-])(O)C(C[n+]1cccc(Cl)c1)P(=O)(O)O` (centres undefined): 132 µM, 59 µM and 72.7 µM.
